Laboratory results as given in ChEMBL document CHEMBL4184303, “Anti-inflammatory isoflavones and isoflavanones from the roots of Pongamia pinnata (L.) Pierre” (Bioorg Med Chem Lett, 2018).

Assays:
BV-2 [1] = test: Cytotoxicity against mouse BV2 cells at 50 uM by MTT assay; type: cell-based; conditions: bv-2, 50 µM
BV-2 [2] = test: Antiinflammatory activity in mouse BV2 cells assessed as inhibition of LPS-induced nitric oxide production; type: functional, cell-based

Row | Compound | IC50 (BV-2 [2]) [µM] | Activity (BV-2 [1])
1 | COc1ccc(-c2coc3cc(OCC=C(C)C)cc(O)c3c2=O)cc1 | > 50 | –
2 | COc1cc(-c2coc3cc(O)ccc3c2=O)cc(O)c1-c1c(OC)cc([C@@H]2OO[C@@H]2CO)cc1OC | 19.7 | Non-Toxic
3 | O=c1c(-c2ccc(O)cc2)coc2cc(O)cc(O)c12 [GENISTEIN] | 28.4 | Non-Toxic
4 | C[C@@H]1C[C@H]2[C@@H]3CCC4=CC(=O)C=C[C@]4(C)[C@@]3(F)[C@@H](O)C[C@]2(C)[C@@]1(O)C(=O)CO [DEXAMETHASONE] | 9.5 | –
5 | COc1cc(O)c2c(=O)c(-c3cc(OC)c(O)c(O)c3CC=C(C)C)coc2c1 | 16.5 | Non-Toxic
6 | O=c1c(-c2ccc(O)cc2)coc2cc(O)ccc12 [DAIDZEIN] | > 50 | –
7 | COc1cc(-c2coc3c(CC=C(C)C)c(O)c(CC=C(C)C)c(O)c3c2=O)ccc1O [FLEMINGSIN] | > 50 | –
8 | COc1ccc(-c2coc3c(OC)c(OCC=C(C)C)ccc3c2=O)cc1 | 35.7 | Non-Toxic
9 | COc1ccc(-c2coc3cc(OCC=C(C)C)ccc3c2=O)cc1OC | 36.9 | Non-Toxic
10 | COc1ccc(-c2coc3cc(O)ccc3c2=O)cc1 [FORMONONETIN] | > 50 | –
11 | COc1cc(O)cc(-c2coc3cc(O)ccc3c2=O)c1 | > 50 | –
12 | CC(C)=CCOc1ccc2c(=O)c(-c3ccc4c(c3)OCO4)coc2c1 | 46.6 | Non-Toxic
13 | COc1ccc(-c2coc3c(-c4c(OC)cc([C@@H]5OO[C@@H]5CO)cc4OC)c(O)ccc3c2=O)cc1O | 9 | Non-Toxic
14 | COc1ccc(-c2coc3cc(OCC=C(C)C)ccc3c2=O)cc1 | 45.2 | Non-Toxic

Continued, in another order:

Row | IC50 (BV-2 [2]) [µM] | Compound | Activity (BV-2 [1])
15 | 39.8 | COc1ccc([C@@H]2COc3cc(O)ccc3C2=O)c(O)c1 | Non-Toxic
16 | > 50 | COc1cc(-c2coc3cc(O)ccc3c2=O)cc(OC)c1O | –
17 | > 50 | COc1cc(-c2coc3cc(O)cc(O)c3c2=O)ccc1O [3'-O-METHYLOROBOL] | –
18 | > 50 | COc1ccc([C@@H]2COc3cc(O)ccc3C2=O)cc1 | –
19 | > 50 | COc1cc(O)cc(-c2coc3cc(O)c(OC)cc3c2=O)c1 | –
20 | > 50 | COc1ccc(-c2coc3cc(OCC=C(C)C)cc(O)c3c2=O)cc1OC | –
21 | > 50 | COc1ccc([C@@H]2COc3cc(O)ccc3C2=O)c(OC)c1O [(3R)-VIOLANONE] | –
22 | > 50 | COc1ccc([C@@H]2COc3cc(O)ccc3C2=O)c(OC)c1 [(3R)-SATIVANONE] | –
23 | 26.3 | COc1ccc(-c2coc3cc(O)cc(O)c3c2=O)cc1O [PRATENSEIN] | Non-Toxic
24 | > 50 | COc1ccc([C@@]2(O)COc3cc(OC)ccc3C2=O)c(O)c1 | –
25 | 39.8 | COc1cc(-c2coc3cc(O)ccc3c2=O)ccc1O | Non-Toxic
26 | 35.8 | COc1cc(O)c([C@@H]2COc3cc(O)ccc3C2=O)c(OC)c1OC | Non-Toxic
